Assay results taken from the NIST ThermoML archive (doi:10.1016/j.jct.2018.01.015).

Details: Gas, rotating-body viscometer for gases

N#N [nitrogen]
Details | viscosity [mPa·s]
253.21 K, 100.8 kPa | 0.01561
253.21 K, 200.9 kPa | 0.01564
253.21 K, 400.7 kPa | 0.01566
253.21 K, 600.8 kPa | 0.01571
253.21 K, 800.8 kPa | 0.01574
253.21 K, 1000.9 kPa | 0.01579
253.21 K, 1200.9 kPa | 0.01584
273.24 K, 100.7 kPa | 0.01659
273.24 K, 200.8 kPa | 0.01661
273.24 K, 400.5 kPa | 0.01664
273.24 K, 600.4 kPa | 0.01667
273.24 K, 800.6 kPa | 0.01671
273.24 K, 1000.6 kPa | 0.01674
273.24 K, 1499.8 kPa | 0.01685
298.24 K, 800.5 kPa | 0.01785
298.25 K, 99.6 kPa | 0.01776
298.25 K, 100.7 kPa | 0.01777
298.25 K, 200.5 kPa | 0.01778
298.25 K, 400.7 kPa | 0.0178
298.25 K, 400.8 kPa | 0.0178
298.25 K, 600.2 kPa | 0.01783
298.25 K, 1000.1 kPa | 0.01789
298.25 K, 1500.2 kPa | 0.01799
323.26 K, 100.6 kPa | 0.0189
323.26 K, 101.5 kPa | 0.0189
323.26 K, 200.7 kPa | 0.0189
323.26 K, 400.4 kPa | 0.01893
323.26 K, 600.8 kPa | 0.01896
323.26 K, 800.2 kPa | 0.01896
323.26 K, 1000.6 kPa | 0.01901
323.26 K, 1000.9 kPa | 0.01901
323.27 K, 398.8 kPa | 0.01893
323.27 K, 1501.9 kPa | 0.01907
323.27 K, 1802.1 kPa | 0.01913
373.29 K, 100.8 kPa | 0.02102
373.29 K, 201.1 kPa | 0.02104
373.29 K, 401 kPa | 0.02106
373.29 K, 601 kPa | 0.02107
373.29 K, 1000.3 kPa | 0.02111
373.29 K, 1500.6 kPa | 0.02118
373.29 K, 1807.2 kPa | 0.02122
423.33 K, 100.9 kPa | 0.02302
423.33 K, 200.9 kPa | 0.02303
423.33 K, 400.7 kPa | 0.02306
423.33 K, 600.6 kPa | 0.02308
423.33 K, 1000.5 kPa | 0.02311
423.33 K, 1500.2 kPa | 0.02316
423.33 K, 1799.4 kPa | 0.02319
473.38 K, 100.7 kPa | 0.02494
473.38 K, 200.8 kPa | 0.02495
473.38 K, 398.5 kPa | 0.02496
473.38 K, 600.9 kPa | 0.02497
473.38 K, 1000.7 kPa | 0.02499
473.38 K, 1500.6 kPa | 0.02503
473.38 K, 1799.3 kPa | 0.02505
